Results on 13 compounds are retold here after US11505543B2, “4-oxo-3,4-dihydroquinazoline compounds as inhibitors of human immunodeficiency virus replication” (VIIV HEALTHCARE UK (NO.5) LIMITED, priority 2018, dated 2022).

The nature of data set [1]: Compound cytotoxicity, XTT-based colorimetric assay. The class given is cell-based. As to conditions: human, uninfected MT2 cells, day 4, XTT. The method in brief:
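Run under the antiviral-assay protocol but without virus. Viability was read on day 4 and CC50 values were derived from the readout.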

Data set [2] relates to recombinant NL4-3 virus (nef section replaced with Renilla luciferase gene) in MT-2 cells. The experiment in a line: HIV cell culture assay (antiviral activity, luciferase readout). In kind it is cell-based. As to conditions: Renilla, NL43, MT-2 cells infected for 4-5 days with recombinant NL4-3 Renilla luciferase virus, serial dilutions of compound. The method in brief:
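Test compound in serial dilution was present while MT-2 cells were infected for 4–5 days with recombinant NL4-3 virus made in 293T cells. Antiviral activity was quantified as Renilla luciferase activity, read with a live-cell substrate. EC50 came from the median-effect equation.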

For orientation: CC50 means the concentration that lowers cell viability or growth by half. Read a high CC50 as lower toxicity to the cells. One may read the EC50 as the concentration giving half of the maximal effect. As to `COc1ccc(-c2ccc3c(=O)n(-c4ccc(Cl)c5c(NS(C)(=O)=O)nn(C)c45)c([C@H](Cc4cc(F)cc(F)c4)NC(=O)Cn4nc(C(F)F)c5c4C(F)(F)[C@@H]4C[C@H]54)nc3c2)c(CO)c1` [Example 179, N-((S)-1-(3-(4-chloro-1-methyl-3-(methylsulfonamido)-1H-indazol-7-yl)-7-(2-(hydroxymethyl)-4-methoxyphenyl)-4-oxo-3,4-dihydroquinazolin-2-yl)-2-(3,5-difluorophenyl)ethyl)-2-((3bS,4aR)-3-(difluoromethyl)-5,5-difluoro-3b,4,4a,5-tetrahydro-1H-cyclopropa[3,4]cyclopenta[1,2-c]pyrazol-1-yl)acetamide], in data set [1], the 50% cytotoxic concentration (CC50) at 4 day was over 500 nM. Moreover, in data set [2], the EC50 came to 0.235 nM.

For the compound `Cc1nn(C)c(C)c1-c1ccc2c(=O)n(-c3ccc(Cl)c4c(NS(C)(=O)=O)nn(C)c34)c([C@H](Cc3cc(F)cc(F)c3)NC(=O)Cn3nc(C(F)F)c4c3C(F)(F)[C@@H]3C[C@H]43)nc2c1` (atropisomer, axis not shown; (aR)) [Example 60, N-((S)-1-(3-(4-chloro-1-methyl-3-(methylsulfonamido)-1H-indazol-7-yl)-4-oxo-7-(1,3,5-trimethyl-1H-pyrazol-4-yl)-3,4-dihydroquinazolin-2-yl)-2-(3,5-difluorophenyl)ethyl)-2-((3bS,4aR)-3-(difluoromethyl)-5,5-difluoro-3b,4,4a,5-tetrahydro-1H-cyclopropa[3,4]cyclopenta[1,2-c]pyrazol-1-yl)acetamide], the CC50 at 4 day in data set [1] was over 1000 nM. Further, in data set [2], the EC50 amounted to 0.32 nM.

On to `Cn1nc(NS(C)(=O)=O)c2c(Cl)ccc(-n3c([C@H](Cc4cc(F)cc(F)c4)NC(=O)Cn4nc(C(F)F)c5c4C(F)(F)[C@@H]4C[C@H]54)nc4cc(-c5cccc(C(C)(C)C)c5)ccc4c3=O)c21` (atropisomer, axis not shown; (aR)) [Example 45, N-((S)-1-(7-(3-(tert-butyl)phenyl)-3-(4-chloro-1-methyl-3-(methylsulfonamido)-1H-indazol-7-yl)-4-oxo-3,4-dihydroquinazolin-2-yl)-2-(3,5-difluorophenyl)ethyl)-2-((3bS,4aR)-3-(difluoromethyl)-5,5-difluoro-3b,4,4a,5-tetrahydro-1H-cyclopropa[3,4]cyclopenta[1,2-c]pyrazol-1-yl)acetamide], for which the 50% cytotoxic concentration (CC50) at 4 day in data set [1] is over 1000 nM. In addition, the half-maximal effective concentration (EC50) in data set [2] came out at 4.5 nM.

Take `Cn1nc(NS(C)(=O)=O)c2c(Cl)ccc(-n3c([C@H](Cc4cc(F)cc(F)c4)NC(=O)Cn4nc(C(F)F)c5c4C(F)(F)[C@@H]4C[C@H]54)nc4cc(-c5ccc(-c6ccccc6)cc5)ccc4c3=O)c21` (atropisomer, axis not shown; (aR)) [Example 101, N-((S)-1-(7-([1,1′-biphenyl]-4-yl)-3-(4-chloro-1-methyl-3-(methylsulfonamido)-1H-indazol-7-yl)-4-oxo-3,4-dihydroquinazolin-2-yl)-2-(3,5-difluorophenyl)ethyl)-2-((3bS,4aR)-3-(difluoromethyl)-5,5-difluoro-3b,4,4a,5-tetrahydro-1H-cyclopropa[3,4]cyclopenta[1,2-c]pyrazol-1-yl)acetamide]: the CC50 at 4 day in data set [1] was over 1000 nM. Besides, the half-maximal effective concentration (EC50) in data set [2] was 62 nM.

As for `O=C(Cn1nc(C(F)F)c2c1C(F)(F)[C@@H]1C[C@H]21)N[C@@H](Cc1cc(F)cc(F)c1)c1nc2cc(-c3ccc(F)cc3F)ccc2c(=O)n1-c1ccc(S(=O)(=O)N2CCOCC2)cc1` [Example 22, 2-((3bS,4aR)-3-(difluoromethyl)-5,5-difluoro-3b,4,4a,5-tetrahydro-1H-cyclopropa[3,4]cyclopenta[1,2-c]pyrazol-1-yl)-N-((S)-2-(3,5-difluorophenyl)-1-(7-(2,4-difluorophenyl)-3-(4-(morpholinosulfonyl)phenyl)-4-oxo-3,4-dihydroquinazolin-2-yl)ethyl)acetamide], the CC50 at 4 day in data set [1] was over 1000 nM. For the same compound, in data set [2], the EC50 was 7.9 nM.

Turning to `O=C(Cn1ccc(C2CC2)n1)N[C@@H](Cc1cc(F)cc(F)c1)c1nc2cc(-c3ccccc3Cl)ccc2c(=O)n1-c1ccc(S(=O)(=O)N2CCOCC2)cc1` [Example 145, (S)-N-(1-(7-(2-chlorophenyl)-3-(4-(morpholinosulfonyl)phenyl)-4-oxo-3,4-dihydroquinazolin-2-yl)-2-(3,5-difluorophenyl)ethyl)-2-(3-cyclopropyl-1H-pyrazol-1-yl)acetamide], the CC50 at 4 day in data set [1] was over 500 nM. The EC50 in data set [2] stood at 16 nM.

In the case of `Cn1nc(NS(C)(=O)=O)c2c(Cl)ccc(-n3c([C@H](Cc4cc(F)cc(F)c4)NC(=O)Cn4nc(C(F)F)c5c4C(F)(F)[C@@H]4C[C@H]54)nc4cc(-c5ccccc5Cl)ccc4c3=O)c21` (atropisomer, axis not shown; (aR)) [Example 43, N-((S)-1-(3-(4-chloro-1-methyl-3-(methylsulfonamido)-1H-indazol-7-yl)-7-(2-chlorophenyl)-4-oxo-3,4-dihydroquinazolin-2-yl)-2-(3,5-difluorophenyl)ethyl)-2-((3bS,4aR)-3-(difluoromethyl)-5,5-difluoro-3b,4,4a,5-tetrahydro-1H-cyclopropa[3,4]cyclopenta[1,2-c]pyrazol-1-yl)acetamide], the CC50 at 4 day in data set [1] is over 1000 nM. Also, the 50% effective concentration (EC50) in data set [2] was found to be 0.69 nM.

In turn, `Cn1nc(NS(C)(=O)=O)c2c(Cl)ccc(-n3c([C@H](Cc4cc(F)cc(F)c4)NC(=O)Cn4nc(C(F)F)c5c4C(F)(F)[C@@H]4C[C@H]54)nc4cc(-c5ccccc5-c5ccccc5)ccc4c3=O)c21` (atropisomer, axis not shown; (aR)) [Example 9, N-((S)-1-(7-([1,1′-biphenyl]-2-yl)-3-(4-chloro-1-methyl-3-(methylsulfonamido)-1H-indazol-7-yl)-4-oxo-3,4-dihydroquinazolin-2-yl)-2-(3,5-difluorophenyl)ethyl)-2-((3bS,4aR)-3-(difluoromethyl)-5,5-difluoro-3b,4,4a,5-tetrahydro-1H-cyclopropa[3,4]cyclopenta[1,2-c]pyrazol-1-yl)acetamide] came in with a CC50 at 4 day in data set [1] of over 1000 nM. Also, the EC50 in data set [2] is 4.6 nM.

As to `Cn1nc(NS(C)(=O)=O)c2c(Cl)ccc(-n3c([C@H](Cc4cc(F)cc(F)c4)NC(=O)Cn4nc(C(F)F)c5c4C(F)(F)[C@@H]4C[C@H]54)nc4cc(-c5ccc(Cl)c(F)c5)ccc4c3=O)c21` [Example 194, N-((S)-1-(3-(4-chloro-1-methyl-3-(methylsulfonamido)-1H-indazol-7-yl)-7-(4-chloro-3-fluorophenyl)-4-oxo-3,4-dihydroquinazolin-2-yl)-2-(3,5-difluorophenyl)ethyl)-2-((3bS,4aR)-3-(difluoromethyl)-5,5-difluoro-3b,4,4a,5-tetrahydro-1H-cyclopropa[3,4]cyclopenta[1,2-c]pyrazol-1-yl)acetamide], the 50% cytotoxic concentration (CC50) at 4 day in data set [1] was over 1000 nM. The EC50 in data set [2] amounted to 7.7 nM.

Compound `Cn1nc(NS(C)(=O)=O)c2c(Cl)ccc(-n3c([C@H](Cc4cc(F)cc(F)c4)NC(=O)Cn4nc(C(F)F)c5c4C(F)(F)[C@@H]4C[C@H]54)nc4cc(-c5ccc(F)cc5CO)ccc4c3=O)c21` (atropisomer, axis not shown; (aR)) [Example 105, N-((S)-1-(3-(4-chloro-1-methyl-3-(methylsulfonamido)-1H-indazol-7-yl)-7-(4-fluoro-2-(hydroxymethyl)phenyl)-4-oxo-3,4-dihydroquinazolin-2-yl)-2-(3,5-difluorophenyl)ethyl)-2-((3bS,4aR)-3-(difluoromethyl)-5,5-difluoro-3b,4,4a,5-tetrahydro-1H-cyclopropa[3,4]cyclopenta[1,2-c]pyrazol-1-yl)acetamide] showed a CC50 at 4 day in data set [1] of over 1000 nM. In data set [2], the EC50 was determined as 0.34 nM.

Consider `CC(C)S(=O)(=O)c1cccc(-c2ccc3c(=O)n(-c4ccc(Cl)c5c(NS(C)(=O)=O)nn(C)c45)c([C@H](Cc4cc(F)cc(F)c4)NC(=O)Cn4nc(C(F)F)c5c4C(F)(F)[C@@H]4C[C@H]54)nc3c2)c1` (atropisomer, axis not shown; (aR)) [Example 123, N-((S)-1-(3-(4-chloro-1-methyl-3-(methylsulfonamido)-1H-indazol-7-yl)-7-(3-(isopropylsulfonyl)phenyl)-4-oxo-3,4-dihydroquinazolin-2-yl)-2-(3,5-difluorophenyl)ethyl)-2-((3bS,4aR)-3-(difluoromethyl)-5,5-difluoro-3b,4,4a,5-tetrahydro-1H-cyclopropa[3,4]cyclopenta[1,2-c]pyrazol-1-yl)acetamide], for which the CC50 at 4 day in data set [1] is over 500 nM. Also, the EC50 in data set [2] turned out to be 0.15 nM.

In the case of `COc1c(F)cc(-c2ccc3c(=O)n(-c4ccc(Cl)c5c(NS(C)(=O)=O)nn(C)c45)c([C@H](Cc4cc(F)cc(F)c4)NC(=O)Cn4nc(C(F)F)c5c4C(F)(F)[C@@H]4C[C@H]54)nc3c2)cc1F` (atropisomer, axis not shown; (aR)) [Example 70, N-((S)-1-(3-(4-chloro-1-methyl-3-(methylsulfonamido)-1H-indazol-7-yl)-7-(3,5-difluoro-4-methoxyphenyl)-4-oxo-3,4-dihydroquinazolin-2-yl)-2-(3,5-difluorophenyl)ethyl)-2-((3bS,4aR)-3-(difluoromethyl)-5,5-difluoro-3b,4,4a,5-tetrahydro-1H-cyclopropa[3,4]cyclopenta[1,2-c]pyrazol-1-yl)acetamide], the half-maximal cytotoxic concentration (CC50) at 4 day in data set [1] is over 1000 nM. Also, the EC50 in data set [2] was found to be 0.92 nM.

For `CS(=O)(=O)Nc1nn(CC(F)(F)F)c2c(-n3c([C@H](Cc4cc(F)cc(F)c4)NC(=O)Cn4nc(C(F)(F)F)c5c4C(F)(F)[C@@H]4C[C@H]54)nc4cc(-c5ccccc5F)ccc4c3=O)ccc(Cl)c12` [Example 182, N-((S)-1-(3-(4-chloro-3-(methylsulfonamido)-1-(2,2,2-trifluoroethyl)-1H-indazol-7-yl)-7-(2-fluorophenyl)-4-oxo-3,4-dihydroquinazolin-2-yl)-2-(3,5-difluorophenyl)ethyl)-2-((3bS,4aR)-5,5-difluoro-3-(trifluoromethyl)-3b,4,4a,5-tetrahydro-1H-cyclopropa[3,4]cyclopenta[1,2-c]pyrazol-1-yl)acetamide], in data set [1], the 50% cytotoxic concentration (CC50) at 4 day is over 500 nM. Also, in data set [2], the half-maximal effective concentration (EC50) amounted to 0.87 nM.
